Experimental data from ChEMBL document CHEMBL4304800, “C4-Phenylthio β-lactams: Effect of the chirality of the β-lactam ring on antimicrobial activity” (2019).
In brackets after ≈: the same amount, converted by molar mass.

Columns and labels:
Format in all cases: functional
Moraxella catarrhalis = assay: Bactericidal activity against serine beta-lactamase producing Moraxella catarrhalis incubated in MH broth for 24 to 48 hrs by microbroth dilution method
[1] = tested on: Mycobacterium tuberculosis; assay: Antitubercular activity against serine beta-lactamase producing Mycobacterium tuberculosis H37Rv after 14 days in presence of middlebrook 7H9/BSA medium by eleven fold serial dilution method; settings: 336 h
[2] = tested on: Mycobacterium tuberculosis; assay: Antitubercular activity against serine beta-lactamase producing Mycobacterium tuberculosis H37Rv after 14 days in presence of GAST/Fe medium by eleven fold serial dilution method; settings: 336 h

SMILES | MBC (Moraxella catarrhalis) [µg/mL] | MIC (Moraxella catarrhalis) [µg/mL] | MIC99 [1] [µg/mL] | MIC99 [2] [µg/mL]
COc1ccccc1S[C@@H]1CC(=O)N1C(=O)N[C@@H](C)c1ccccc1 | 100 (≈ 281 µM) | 100 (≈ 281 µM) | 100 | 25
C[C@H](NC(=O)N1C(=O)C[C@@H]1[Se]c1ccccc1)c1ccccc1 | 50 (≈ 134 µM) | 25 (≈ 67 µM) | 25 | 6.2
C[C@@H](NC(=O)N1C(=O)C[C@@H]1Sc1ccc(F)cc1Cl)c1ccccc1 | 25 (≈ 66 µM) | 25 (≈ 66 µM) | 25 | 0.7
C[C@@H](NC(=O)N1C(=O)C[C@@H]1Sc1ccc(F)c(F)c1)c1ccccc1 | 25 (≈ 69 µM) | 25 (≈ 69 µM) | > 100 | 0.7
O=C1CC(Sc2ccc(F)cc2Cl)N1 (racemic) | – | – | 25 | –
C[C@@H](NC(=O)N1C(=O)C[C@H]1[Se]c1ccccc1)c1ccccc1 | 50 (≈ 134 µM) | 25 (≈ 67 µM) | 25 | 12.5
C[C@H](NC(=O)N1C(=O)C[C@H]1Sc1ccc(F)c(Cl)c1)c1ccccc1 | 200 (≈ 528 µM) | 200 (≈ 528 µM) | 25 | 1.5
C[C@@H](NC(=O)N1C(=O)C[C@@H]1Sc1ccccc1F)c1ccccc1 | 50 (≈ 145 µM) | 25 (≈ 72.6 µM) | 25 | 12.5
C[C@@H](NC(=O)N1C(=O)C[C@H]1Sc1ccccc1F)c1ccccc1 | 25 (≈ 72.6 µM) | 12.5 (≈ 36.3 µM) | 25 | 12.5
C[C@H](NC(=O)N1C(=O)C[C@@H]1Sc1ccc(F)cc1Cl)c1ccccc1 | 50 (≈ 132 µM) | 50 (≈ 132 µM) | 25 | 1.5
O=C1CC([Se]c2ccccc2)N1C(=O)NCc1ccccc1 (racemic) | 12.5 (≈ 34.8 µM) | 12.5 (≈ 34.8 µM) | 25 | –
COc1ccccc1SC1CC(=O)N1 (racemic) | – | – | > 250 | –
COc1ccc(S[C@H]2CC(=O)N2C(=O)N[C@@H](C)c2ccccc2)cc1 | 50 (≈ 140 µM) | 50 (≈ 140 µM) | > 50 | 25
O=C1CC([Se]c2ccccc2)N1 (racemic) | 6.2 (≈ 27.4 µM) | 6.2 (≈ 27.4 µM) | 25 | –
O=C1CC(Sc2c(F)c(F)c(F)c(F)c2F)N1 (racemic) | – | – | > 100 | –
COc1ccc(S[C@H]2CC(=O)N2C(=O)N[C@H](C)c2ccccc2)cc1 | 50 (≈ 140 µM) | 50 (≈ 140 µM) | 100 | 25
C[C@@H](NC(=O)N1C(=O)C[C@H]1Sc1ccc(C(F)(F)F)cc1)c1ccccc1 | 200 (≈ 507 µM) | 200 (≈ 507 µM) | 100 | –
O=C1CC(Sc2ccc(C(F)(F)F)cc2)N1 (racemic) | – | – | 25 | –
COc1ccc(SC2CC(=O)N2C(=O)NCc2ccccc2)cc1 (racemic) | – | – | 125 | –
C[C@H](NC(=O)N1C(=O)C[C@H]1Sc1ccc(F)cc1)c1ccccc1 | 50 (≈ 145 µM) | 50 (≈ 145 µM) | 50 | 12.5
O=C1CC(Sc2ccc(F)c(Cl)c2)N1 (racemic) | – | – | – | 0.7
C[C@@H](NC(=O)N1C(=O)C[C@H]1Sc1ccc(F)cc1)c1ccccc1 | 25 (≈ 72.6 µM) | 25 (≈ 72.6 µM) | 50 | 25
O=C1CC(Sc2ccc(F)cc2F)N1 (racemic) | 3.1 (≈ 14.4 µM) | – | 3.1 | –
COc1ccc(S[C@@H]2CC(=O)N2C(=O)N[C@@H](C)c2ccccc2)cc1 | 50 (≈ 140 µM) | 50 (≈ 140 µM) | 50 | 25
C[C@H](NC(=O)N1C(=O)C[C@@H]1Sc1ccc(F)c(Cl)c1)c1ccccc1 | 25 (≈ 66 µM) | 25 (≈ 66 µM) | 25 | 1.5
C[C@@H](NC(=O)N1C(=O)C[C@@H]1Sc1ccc(F)cc1)c1ccccc1 | 25 (≈ 72.6 µM) | 25 (≈ 72.6 µM) | 50 | 12.5

SMILES | MBC (Moraxella catarrhalis) [µg/mL] | MIC (Moraxella catarrhalis) [µg/mL] | MIC99 [1] [µg/mL] | MIC99 [2] [µg/mL]
C[C@@H](NC(=O)N1C(=O)C[C@@H]1Sc1ccc(F)c(Cl)c1)c1ccccc1 | 25 (≈ 66 µM) | 25 (≈ 66 µM) | 25 | 1.5
C[C@@H](NC(=O)N1C(=O)C[C@@H]1Sc1ccc(C(F)(F)F)cc1)c1ccccc1 | 200 (≈ 507 µM) | 200 (≈ 507 µM) | 100 | –
C[C@@H](NC(=O)N1C(=O)C[C@H]1Sc1ccc(F)cc1Cl)c1ccccc1 | 25 (≈ 66 µM) | 25 (≈ 66 µM) | 50 | 1.5
C[C@H](NC(=O)N1C(=O)C[C@H]1Sc1ccccc1F)c1ccccc1 | 50 (≈ 145 µM) | 50 (≈ 145 µM) | 50 | 12.5
O=C1CC(Sc2ccc(F)cc2)N1 (racemic) | – | – | > 100 | –
C[C@H](NC(=O)N1C(=O)C[C@H]1Sc1ccc(F)cc1Cl)c1ccccc1 | 200 (≈ 528 µM) | 200 (≈ 528 µM) | 37.5 | 1.5
C[C@H](NC(=O)N1C(=O)C[C@@H]1Sc1ccc(F)cc1F)c1ccccc1 | 12.5 (≈ 34.5 µM) | 12.5 (≈ 34.5 µM) | 12.5 | 0.7
C[C@H](NC(=O)N1C(=O)C[C@@H]1Sc1c(F)c(F)c(F)c(F)c1F)c1ccccc1 | 6.2 (≈ 14.9 µM) | 6.2 (≈ 14.9 µM) | 100 | 0.7
C[C@@H](NC(=O)N1C(=O)C[C@H]1Sc1ccc(F)c(F)c1)c1ccccc1 | 12.5 (≈ 34.5 µM) | 12.5 (≈ 34.5 µM) | ≥ 100 | 0.7
C[C@H](NC(=O)N1C(=O)C[C@H]1Sc1ccc(C(F)(F)F)cc1)c1ccccc1 | 200 (≈ 507 µM) | 200 (≈ 507 µM) | 100 | –
O=C1CC(Sc2ccc(F)cc2)N1C(=O)NCc1ccccc1 (racemic) | – | – | 6.2 | –
C[C@H](NC(=O)N1C(=O)C[C@@H]1Sc1ccccc1F)c1ccccc1 | 200 (≈ 581 µM) | 25 (≈ 72.6 µM) | 25 | 6.2
O=C1CC(Sc2ccc(F)c(Cl)c2)N1C(=O)NCc1ccccc1 (racemic) | 6.2 (≈ 17 µM) | 6.2 (≈ 17 µM) | – | –
COc1ccc(S[C@@H]2CC(=O)N2C(=O)N[C@H](C)c2ccccc2)cc1 | 50 (≈ 140 µM) | 50 (≈ 140 µM) | 100 | 25
C[C@@H](NC(=O)N1C(=O)C[C@@H]1[Se]c1ccccc1)c1ccccc1 | 50 (≈ 134 µM) | 25 (≈ 67 µM) | 25 | 12.5
COc1ccccc1S[C@H]1CC(=O)N1C(=O)N[C@H](C)c1ccccc1 | 50 (≈ 140 µM) | 50 (≈ 140 µM) | 50 | 25
O=C1CC(Sc2ccccc2F)N1 (racemic) | – | – | 100 | –
CC[C@H]1OC(=O)[C@H](C)[C@@H](O[C@H]2C[C@@](C)(OC)[C@@H](O)[C@H](C)O2)[C@H](C)[C@@H](O[C@@H]2O[C@H](C)C[C@H](N(C)C)[C@H]2O)[C@](C)(O)C[C@@H](C)CN(C)[C@H](C)[C@@H](O)[C@]1(C)O [AZITHROMYCIN] | 0.063 (≈ 0.0841 µM) | 0.125 (≈ 0.167 µM) | – | –
C[C@H](NC(=O)N1C(=O)C[C@H]1[Se]c1ccccc1)c1ccccc1 | 50 (≈ 134 µM) | 25 (≈ 67 µM) | 25 | 6.2
COc1ccccc1S[C@H]1CC(=O)N1C(=O)N[C@@H](C)c1ccccc1 | 50 (≈ 140 µM) | 50 (≈ 140 µM) | 25 | 6.2
C[C@H](NC(=O)N1C(=O)C[C@@H]1Sc1ccc(F)cc1)c1ccccc1 | 50 (≈ 145 µM) | 25 (≈ 72.6 µM) | 50 | 12.5
COc1ccccc1SC1CC(=O)N1C(=O)NCc1ccccc1 (racemic) | – | – | 188 | –
O=C1CC(Sc2ccc(F)cc2F)N1C(=O)NCc1ccccc1 (racemic) | 1.6 (≈ 4.59 µM) | 1.6 (≈ 4.59 µM) | 100 | –
COc1ccc(SC2CC(=O)N2)cc1 (racemic) | 200 (≈ 956 µM) | > 200 | 100 | –
O=C1CC(Sc2ccccc2F)N1C(=O)NCc1ccccc1 (racemic) | – | – | 25 | –
O=C1CC(Sc2ccc(F)c(F)c2)N1C(=O)NCc1ccccc1 (racemic) | – | – | 6.2 | –
